Experimental data taken from publication PMC3947168 (Molecular cancer therapeutics, 2013).
pIC50, pKi: −log10 of the molar value. Where two headings read alike, the source gives them in different places.

Assays:
[1] = system: SW1736 human anaplastic thyroid tumor xenografts; assay: Murine xenograft model; format: in vivo, nu/nu athymic mice
[2] = system: p-AKT, p-STAT3, p-ERK, p-4E-BP1; assay: c-MET downstream signaling; format: cell-based, human; details: SW1736 and TL3; for levels of p-STAT3 and p-AKT / phosphorylation of ERK and 4E-BP1: 0.1, 1.0, and 10 μM
[3] = system: T2 cells; assay: Apoptosis assay; format: cell-based, human; details: 10 μM, 24 hours, diluent control 11%
[4] = system: HT29 cells; assay: MTT cellular proliferation assay, HT29; format: cell-based; details: Homo sapiens, HT-29, 72 h, read-out: Growth inhibition (IC50)
[5] = system: MDA-MB-231 cells; assay: MTT cellular proliferation assay, MDA-MB-231; format: cell-based; details: Homo sapiens, MDA-MB-231, 72 h, read-out: Growth inhibition (IC50)
[6] = system: thyroid cancer cell lines (SW1736, T2, TL3, BHP2-7); assay: MTT cellular proliferation assay, responsive thyroid cancer cell lines; format: cell-based; details: Homo sapiens, SW-1736, 72 h, read-out: IC50 of proliferation
[7] = system: TL3 cells; assay: MTT cellular proliferation assay, TL3; format: cell-based; details: Homo sapiens; for pIC50: 72 h, read-out: Growth inhibition (IC50)
[8] = system: T2 cells; assay: Cell cycle analysis; format: cell-based, human; details: 24 hour, control 3%
[9] = system: SW1736 cells; assay: MTT cellular proliferation assay, SW1736; format: cell-based; details: Homo sapiens, SW-1736, read-out: inhibition of cell growth
[10] = system: TL3 cells; assay: Apoptosis assay; format: cell-based, human; details: 10 μM, 24 hours, diluent control 10%
[11] = system: SW1736 cells; assay: Cell cycle analysis; format: cell-based, human; details: 24 hour, diluent control 9%
[12] = system: TL3 cells; assay: Cell cycle analysis; format: cell-based, human; details: 24 hour, control 2%
[13] = system: SW1736 cells; assay: Apoptosis assay; format: cell-based, human; details: 10 μM, 24 hours, diluent control 10%
[14] = system: PTC cell lines (BHP, B-CPAP and TPC-1); details: cited from earlier work
[15] = target: T1, c-MET (Homo sapiens, UniProt P08581); details: 10μM; SW1736 and TL3; HGF 20 ng/ml, 10 minutes
[16] = target: c-MET; details: read-out: Ki value, c-MET; biochemical analysis; cited from earlier work
[17] = target: T1, c-MET; assay: HGF induced c-MET phosphorylation; format: cell-based
[18] = target: T1, c-MET; assay: HGF induced c-MET phosphorylation; format: cell-based; remark: listed apart in the source
[19] = target: T1, c-MET; details: read-out: p-MET inhibition (IC50); MDA-MB-231; Report; cited from earlier work
[20] = target: T1, c-MET; details: read-out: p-MET inhibition (IC50); HT-29; Report; cited from earlier work
[21] = target: T1, c-MET; assay: HGF induced c-MET phosphorylation; format: cell-based; remark: listed apart in the source
[22] = target: T1, c-MET; assay: HGF induced c-MET phosphorylation; format: cell-based; remark: listed apart in the source

T1 sequence (P08581 25-1390): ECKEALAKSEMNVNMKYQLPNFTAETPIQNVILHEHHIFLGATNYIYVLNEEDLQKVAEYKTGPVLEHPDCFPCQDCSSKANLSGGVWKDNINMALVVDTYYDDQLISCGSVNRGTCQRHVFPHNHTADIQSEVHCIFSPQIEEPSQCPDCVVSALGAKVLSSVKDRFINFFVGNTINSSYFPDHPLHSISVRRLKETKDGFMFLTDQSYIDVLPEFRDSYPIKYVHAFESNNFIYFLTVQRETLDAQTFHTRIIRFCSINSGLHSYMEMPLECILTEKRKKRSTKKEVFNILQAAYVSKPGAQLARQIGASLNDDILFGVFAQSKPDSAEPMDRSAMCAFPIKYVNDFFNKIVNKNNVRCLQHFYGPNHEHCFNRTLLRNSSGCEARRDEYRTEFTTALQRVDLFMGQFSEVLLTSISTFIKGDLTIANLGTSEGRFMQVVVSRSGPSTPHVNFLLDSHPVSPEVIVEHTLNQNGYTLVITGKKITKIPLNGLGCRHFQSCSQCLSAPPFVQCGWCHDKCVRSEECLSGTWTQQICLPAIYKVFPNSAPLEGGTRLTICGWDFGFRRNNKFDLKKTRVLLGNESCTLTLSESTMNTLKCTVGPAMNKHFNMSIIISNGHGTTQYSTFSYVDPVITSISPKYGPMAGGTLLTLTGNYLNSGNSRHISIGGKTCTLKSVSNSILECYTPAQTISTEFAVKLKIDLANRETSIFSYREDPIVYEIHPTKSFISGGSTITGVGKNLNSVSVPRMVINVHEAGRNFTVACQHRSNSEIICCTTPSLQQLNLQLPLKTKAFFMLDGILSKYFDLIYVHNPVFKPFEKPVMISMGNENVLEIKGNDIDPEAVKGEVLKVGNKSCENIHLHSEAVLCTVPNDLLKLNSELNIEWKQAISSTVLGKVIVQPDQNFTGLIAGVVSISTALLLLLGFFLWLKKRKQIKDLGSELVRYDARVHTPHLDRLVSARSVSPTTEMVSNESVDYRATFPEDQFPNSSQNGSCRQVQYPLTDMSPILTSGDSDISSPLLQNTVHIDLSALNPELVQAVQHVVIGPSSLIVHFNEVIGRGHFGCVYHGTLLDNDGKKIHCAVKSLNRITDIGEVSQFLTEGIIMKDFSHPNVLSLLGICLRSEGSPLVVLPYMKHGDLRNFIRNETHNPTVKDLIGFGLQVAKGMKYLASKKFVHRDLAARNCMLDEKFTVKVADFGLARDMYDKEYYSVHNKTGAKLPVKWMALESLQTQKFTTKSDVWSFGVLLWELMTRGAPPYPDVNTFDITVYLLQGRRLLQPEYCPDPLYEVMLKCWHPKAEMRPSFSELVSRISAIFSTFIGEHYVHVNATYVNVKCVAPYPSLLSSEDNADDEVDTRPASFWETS

C[C@@H](Oc1cc(-c2cnn(C3CCNCC3)c2)cnc1N)c1c(Cl)ccc(F)c1Cl [Crizotinib]
decrease of mean tumor volume compared to vehicle group ([1]; 50 mg/kg daily oral gavage, day 50): 55.8% | Ki67 positivity in tumor tissue compared to vehicle ([1]; 50 mg/kg, day 50, immunohistochemistry): less | c-MET phosphorylation in tumor tissue compared to vehicle ([1]; 50 mg/kg, tumors dissected 4 hours after drug administration at day 50, western blotting): less | levels of p-STAT3 and p-AKT [2]: potently decreased | phosphorylation of ERK and 4E-BP1 [2]: not significantly altered | apoptosis (% Annexin V positive cells) [3]: 19% | pIC50 [4]: 5.59 | pIC50 [5]: 5.55 | pIC50 [6]: 5.46 to 5.70 | pIC50 [7]: 5.59 | inhibition at 0.1 µM ([7]; read-out: inhibition of cell growth): < 20% | cells in G2/M ([8]; 10 μM): 26% | inhibition at 1 µM [9]: < 50% | apoptosis (% Annexin V positive cells) [10]: 27% | mean G2/M arrest (cells in G2/M) ([11]; 10 μM): 74% | cells in G2/M ([12]; 10 μM): 48% | apoptosis (% Annexin V positive cells) [13]: 15%

Cc1[nH]c(/C=C2\C(=O)Nc3ccc(S(=O)(=O)Cc4c(Cl)cccc4Cl)cc32)c(C)c1C(=O)N1CCC[C@@H]1CN1CCCC1 [PHA665752]
in vitro growth of PTC cell lines [14]: growth inhibited

Cc1[nH]c(/C=C2\C(=O)Nc3ccc(S(=O)(=O)N(C)c4cccc(Cl)c4)cc32)c(C)c1C(=O)N1CCN(C)CC1 [SU11274]
effect on p-AKT, p-STAT3 ([2]; 10μM): inhibited | effect on p-MET [15]: inhibited

O=C1NC(=O)[C@@H](c2cn3c4c(cccc24)CCC3)[C@@H]1c1c[nH]c2ccccc12 [Tivantinib]
pKi [16]: 6.45 | pIC50 [17]: < 6.00 | levels of p-STAT3 and p-AKT [2]: potently decreased | phosphorylation of ERK and 4E-BP1 [2]: not significantly altered | apoptosis (% Annexin V positive cells) [3]: 21% | pIC50 [4]: 6.27 | pIC50 [18]: ~6.00 | pIC50 [5]: 6.19 | pIC50 [6]: 6.00 to 7.00 | pIC50 [7]: 6.48 | cells in G2/M ([8]; 1 μM): 45% | pIC50 [19]: 6.52 to 7.00 | apoptosis (% Annexin V positive cells) [10]: 20% | pIC50 [20]: 6.52 to 7.00 | mean G2/M arrest (cells in G2/M) ([11]; 1 μM): 57% | pIC50 [21]: < 6.00 | pIC50 [22]: ~6.00 | cells in G2/M ([12]; 1 μM): 23% | apoptosis (% Annexin V positive cells) [13]: 14%
